Experimental data published in article PMC6792352, “Limited Chemical Structural Diversity Found to Modulate Thyroid Hormone Receptor in the Tox21 Chemical Library” (Environmental Health Perspectives, 2019).
Where a name gives a salt, the structure may show the parent alone. Non-standard residues stand in square brackets, D forms with d. Residues, ends and D or L forms follow the SMILES beside them. Orn = NCCC[C@H](N)C(=O)O

Experiment: in vitro
Details: rat, gh3-tre-luc cells

Compound	CC50 at 24 h (AC50 (uM) modified / 1000)	also measured
CC(C)c1cccc(C(C)C)c1N [2,6-Diisopropylaniline]	> 90 µM	
O=C(COc1ccc(Cl)cc1)OCCNC12CC3CC(CC(C3)C1)C2 [Adafenoxate]	> 50 µM	
C=CCN1CCCC1CNC(=O)c1cc(S(N)(=O)=O)cc(OC)c1OC (stereo not shown) [Veralipride]	> 50 µM	
COc1ccc(C(=O)N2CCCC2=O)cc1 [Aniracetam]	> 50 µM	
COCC1=C(C(=O)OC(C)OC(=O)OC(C)C)N2C(=O)[C@@H](NC(=O)/C(=N\OC)c3csc(N)n3)[C@H]2SC1 (stereo partly shown) [Cefpodoxime proxetil]	> 50 µM	
C1=CC2C3C=CC(C3)C2C1 (stereo not shown) [Dicyclopentadiene]	> 90 µM	
C[N+]1(C)CCCCC1 [Mepiquat chloride]	> 90 µM	
CO[Si](CCCNCCC[Si](OC)(OC)OC)(OC)OC [3-(Trimethoxysilyl)-N-[3-(trimethoxysilyl)propyl]propan-1-amine]	> 90 µM	
C1CCC(SSC2CCCCC2)CC1 [Dicyclohexyl disulfide]	> 90 µM	
CCCCCCCCCCl [1-Chlorononane]	> 90 µM	
CCC(C)N(C)C(=O)c1cc2ccccc2c(-c2ccccc2Cl)n1 (stereo not shown) [PK 11195]	48.6 µM	
CCC1(c2ccccc2)C(=O)NC(=O)NC1=O [Phenobarbital]	> 90 µM	
CC(=O)CC(=O)Nc1ccccc1 [Acetoacetanilide]	> 90 µM	
N#CCCNCCC#N [3,3'-Iminobispropanenitrile]	> 100 µM	
CCCCCCI [1-Iodohexane]		CC50 at 24 h (AC50 (uM) modified / 1000, Tox21_110001=Tox21_202862, viability, 1 nM T3 present, 24 h): > 90 µM
OC(CCl)CCl [1,3-Dichloro-2-propanol]	> 90 µM	
O=C(C(=O)c1ccccc1)c1ccccc1 [1,2-Diphenylethanedione]	> 90 µM	
CC[N+](C)(C)Cc1ccccc1Br [Bretylium tosylate]	> 20 µM	
O=P(OCC(Br)CBr)(OCC(Br)CBr)OCC(Br)CBr (stereo not shown) [Tris(2,3-dibromopropyl) phosphate]		CC50 at 24 h (AC50 (uM) modified / 1000, Tox21_110001=Tox21_201798, viability, 1 nM T3 present, 24 h): 30.4 µM; CC50 at 24 h (AC50 (uM) modified / 1000, Tox21_110001=Tox21_302967, viability, 1 nM T3 present, 24 h): 54.5 µM
C[Se]CC[C@H](N)C(=O)O [Selenomethionine]	> 50 µM	
COc1ccc2c(c1OC)C(=O)O[C@@H]2[C@H]1c2cc3c(cc2CCN1C)OCO3 [Hydrastine]		CC50 at 24 h (AC50 (uM) modified / 1000, Tox21_110001=Tox21_200686, viability, 1 nM T3 present, 24 h): 6.92 µM
O=Cc1ccc(CO)o1 [5-(Hydroxymethyl)-2-furfural]	> 90 µM	
Clc1ccc(C(Cn2ccnc2)OCc2c(Cl)cccc2Cl)c(Cl)c1 (stereo not shown) [Isoconazole]	13.8 µM	
Clc1cc(Cl)c(Cl)c(Cl)c1Cl [Pentachlorobenzene]	> 90 µM	
CCCCCCC(C)Nc1ccc(Nc2ccccc2)cc1 (stereo not shown) [N-(1-Methylheptyl)-N'-phenyl-1,4-benzenediamine]	35.9 µM	
CCOC(=O)Oc1c(OC)cc(C(=O)O[C@@H]2C[C@@H]3CN4CCc5c([nH]c6cc(OC)ccc56)[C@H]4C[C@@H]3[C@H](C(=O)OC)[C@H]2OC)cc1OC [Syrosingopine]	> 20 µM	

Compound	CC50 at 24 h (AC50 (uM) modified / 1000)	also measured
COC(COC(N)=O)C1=C(N2CC2)C(=O)C(C)=C(N2CC2)C1=O (stereo not shown) [Carboquone]	0.556 µM	
CC(C)C[C@@H]1NC(=O)[C@H](CCCN)NC(=O)[C@H](C(C)C)NC(=O)[C@@H]2CCCN2C(=O)[C@@H](Cc2ccccc2)NC(=O)[C@H](CC(C)C)NC(=O)[C@H](CCCN)NC(=O)[C@H](C(C)C)NC(=O)[C@@H]2CCCN2C(=O)[C@@H](Cc2ccccc2)NC1=O [Gramicidin S] (cyclo(L[dF]PV[Orn]L[dF]PV[Orn]))	3.05 µM	
CC(=O)OO [Peracetic acid]		CC50 at 24 h (AC50 (uM) modified / 1000, Tox21_110001=Tox21_112402, viability, 1 nM T3 present, 24 h): > 50 µM
FC(Cl)(Cl)Cl [Trichlorofluoromethane]	> 90 µM	
CC(C)(C)CC(C)(C)c1cc(Cc2cc(C(C)(C)CC(C)(C)C)cc(-n3nc4ccccc4n3)c2O)c(O)c(-n2nc3ccccc3n2)c1 [Bisoctrizole]	> 50 µM	
CCCNC(C)C(=O)Nc1c(C)csc1C(=O)OC (stereo not shown) [Articaine hydrochloride]	> 20 µM	
Cc1ccccc1/N=N/c1ccc(/N=N/c2c(O)ccc3ccccc23)c(C)c1 [C.I. Solvent Red 24]	> 50 µM	
CN[C@H]1CC[C@@H](c2ccc(Cl)c(Cl)c2)c2ccccc21 [Sertraline hydrochloride]	7.85 µM	
COC(=O)c1ccccc1S(=O)(=O)NC(=O)Nc1nc(C)nc(OC)n1 [Metsulfuron-methyl]	> 90 µM	
Cc1cc(C)c(N)c(Cl)c1 [2-Chloro-4,6-dimethylaniline]	> 90 µM	
COc1cc(N)c(Cl)cc1C(=O)NC1CCN(CCCOc2ccc(F)cc2)CC1OC (stereo not shown) [Cisapride]	13 µM	
O=C(NC(O)C(Cl)(Cl)Cl)NC(O)C(Cl)(Cl)Cl (stereo not shown) [Dichloralurea]	> 50 µM	
Brc1c2ccccc2cc2ccccc12 [9-Bromoanthracene]	> 90 µM	
C=CCc1cc(S(=O)(=O)c2ccc(O)c(CC=C)c2)ccc1O [4,4'-Sulfonylbis[2-(prop-2-en-1-yl)phenol]]	49.1 µM	
Cc1c(C(=O)NCCO)[n+]([O-])c2ccccc2[n+]1[O-] [Olaquindox]	> 50 µM	
[H]/N=C(/N)NS(=O)(=O)c1ccc(N)cc1 [Sulfaguanidine]	> 20 µM	
Cc1ccc(C)c2ccccc12 [1,4-Dimethylnaphthalene]	> 90 µM	
CCCCc1ccc2c(n1)[C@@H](c1ccc(OC)cc1C[C@H](C)C(=O)O)[C@H](C(=O)O)[C@H]2c1ccc2c(c1)OCO2 [MK-547]	> 90 µM	
O=C(Nc1ccc(Oc2ccc(Cl)cc2)c(Cl)c1)c1cc(I)cc(I)c1O [Rafoxanide]	36.2 µM	
CN(C)c1ccc(C2(c3ccc(N(C)C)cc3)OC(=O)c3cc(N(C)C)ccc32)cc1 [Crystal Violet lactone]	> 90 µM	
O=C(O)c1ccncc1 [Isonicotinic acid]	> 90 µM	
Cc1c(C2(c3cc(Br)c(O)c(Br)c3C)OS(=O)(=O)c3ccccc32)cc(Br)c(O)c1Br [Bromcresol green]	45.4 µM	
CCCCCCc1ccc(-c2ccc(C#N)cc2)cc1 [4-Hexyl-4'-cyanobiphenyl]	> 90 µM	
CCCCCC/C=C/C=O [(E)-2-Nonenal]	> 90 µM	
CCN(CC)C(C)=O [Diethylacetamide]	> 100 µM	
Cc1ccccc1C(=O)Nc1cccc(OC(C)C)c1 [Mepronil]	> 90 µM	

Compound	CC50 at 24 h (AC50 (uM) modified / 1000)	also measured
O=C(O)c1c(Cl)c(Cl)c(Cl)c(Cl)c1-c1c2cc(I)c(=O)c(I)c-2oc2c(I)c(O)c(I)cc12 [Rose bengal sodium]	20.9 µM	
COC(=O)c1cccnc1 [Methyl nicotinate]	> 90 µM	
CCc1cccc(C)c1N [2-Ethyl-6-methylaniline]	> 90 µM	
Oc1ccc(C2(c3ccc(O)cc3)c3ccccc3-c3ccccc32)cc1 [4,4'-(9H-Fluorene-9,9-diyl)diphenol]	28.7 µM	
Oc1c(Br)c(Br)c(Br)c(Br)c1Br [Pentabromophenol]	33.5 µM	
CN1C[C@H](C(=O)N[C@]2(C)O[C@@]3(O)[C@@H]4CCCN4C(=O)[C@H](Cc4ccccc4)N3C2=O)C=C2c3cccc4[nH]cc(c34)C[C@H]21 [Ergotamine D-tartrate]		CC50 at 24 h (AC50 (uM) modified / 1000, Tox21_110001=Tox21_111183, viability, 1 nM T3 present, 24 h): > 50 µM; CC50 at 24 h (AC50 (uM) modified / 1000, Tox21_110001=Tox21_201705, viability, 1 nM T3 present, 24 h): > 90 µM; CC50 at 24 h (AC50 (uM) modified / 1000, Tox21_110001=Tox21_303182, viability, 1 nM T3 present, 24 h): > 40 µM
NS(=O)(=O)c1ccc(C(=O)O)cc1 [Carzenide]	> 50 µM	
CC(C)(C)NCC(O)COc1ccc(NC(=O)NC2CCCCC2)cc1 (stereo not shown) [Talinolol]	> 50 µM	
O=S(=O)(O)c1ccccc1/C=C/c1ccc(-c2ccc(/C=C/c3ccccc3S(=O)(=O)O)cc2)cc1 [Disodium 4,4'-bis(2-sulfostyryl)biphenyl]	> 80 µM	
N[C@@H]1CCCC[C@H]1N [1,2-Cyclohexanediamine]	> 90 µM	
CCN(C(C)=O)c1cccc(-c2ccnc3c(C#N)cnn23)c1 [Zaleplon]		CC50 at 24 h (AC50 (uM) modified / 1000, Tox21_110001=Tox21_111872, viability, 1 nM T3 present, 24 h): > 50 µM
O=C(CCl)Nc1ccccc1 [2-Chloro-N-phenylacetamide]	23.7 µM	
Cc1ccc(S(=O)(=O)NC(=O)NC2CCCCC2)cc1 [Glycyclamide]	> 50 µM	
CC(C)c1cc2c(cc1S(=O)(=O)O)[C@@]1(C)CCC[C@@](C)(C(=O)O)[C@@H]1CC2 [Ecabet]	> 50 µM	
Nc1cccc2c(=O)[nH][nH]c(=O)c12 [Luminol]	> 90 µM	
O=C(O)CCSSCCC(=O)O [3,3'-Dithiodipropionic acid]	> 90 µM	
O=C(c1ccc(O)cc1O)c1ccc(O)cc1O [2,2',4,4'-Tetrahydroxybenzophenone]	> 90 µM	
C=CC(=O)OCCOc1ccccc1 [2-Phenoxyethyl acrylate]	> 90 µM	
O=C(NS(=O)(=O)/C=C/c1cccs1)c1ccc(F)cc1Br [PharmaGSID_48518]	> 90 µM	
CCOP(=S)(OCC)SCSC(C)(C)C [Terbufos]		CC50 at 24 h (AC50 (uM) modified / 1000, Tox21_110001=Tox21_201634, viability, 1 nM T3 present, 24 h): > 90 µM
CCCCc1nc2cccnc2n1Cc1ccc(-c2ccccc2-c2nnn[nH]2)cc1 [FR130739]	55.3 µM	
O=C1N(c2ccccc2)c2ccccc2C1(Cc1ccncc1)Cc1ccncc1 [Linopirdine]	> 50 µM	
C=C(C)C(=O)OCCCC [Butyl methacrylate]	> 90 µM	
CC1=C(C(=O)O)N2C(=O)[C@@H](NC(=O)[C@H](N)C3=CCC=CC3)[C@H]2SC1 [Cephradine]	> 50 µM	
